This is an account of results in patent publication US12202843B2, “Muscarinic receptor agonists” (Nxera Pharma UK Limited, priority 2014, dated 2025).

One may read the Emax as the size of the effect at its maximum, as opposed to the concentration needed.

Structures are written as SMILES.

Assay [1] concerns the target T1, human muscarinic M1 receptor (Homo sapiens, UniProt P11229).
T1 sequence (P11229 1-460): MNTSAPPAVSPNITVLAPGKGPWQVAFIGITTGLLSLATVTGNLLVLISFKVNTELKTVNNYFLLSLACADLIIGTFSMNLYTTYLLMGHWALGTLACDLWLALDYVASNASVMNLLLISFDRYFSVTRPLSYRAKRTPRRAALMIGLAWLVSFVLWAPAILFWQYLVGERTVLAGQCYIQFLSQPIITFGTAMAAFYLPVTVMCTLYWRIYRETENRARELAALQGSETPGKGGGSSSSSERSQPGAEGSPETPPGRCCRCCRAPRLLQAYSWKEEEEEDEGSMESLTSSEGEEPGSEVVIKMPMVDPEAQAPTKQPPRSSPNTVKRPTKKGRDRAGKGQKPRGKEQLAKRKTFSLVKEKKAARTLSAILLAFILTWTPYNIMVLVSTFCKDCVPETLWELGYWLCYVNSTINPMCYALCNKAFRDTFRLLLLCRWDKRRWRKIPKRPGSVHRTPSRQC
The assay is described as follows: Alphascreen Surefire phospho-ERK1/2 functional assay, M1. The class given is cell-based. As to conditions: for EC50: CHO cells stably expressing human M1, read-out: pEC50 M1 (converted); for Emax: CHO, read-out: % Emax cf. ACh, M1, CHO cells stably expressing human M1, relative to ACh; for % Emax cf. ACh, M1: CHO cells stably expressing human M1, relative to ACh. As for the experimental part: (§1) ERK1/2 phosphorylation is a downstream consequence of both Gq/11 and Gi/o protein coupled receptor activation, making it highly suitable for the assessment of M1, M3 (Gq/11 coupled) and M2, M4 receptors (Gi/o coupled), rather than using different assay formats for different receptor subtypes. CHO cells stably expressing the human muscarinic M1, M2, M3 or M4 receptor were plated (25K/well) onto 96-well tissue culture plates in MEM-alpha+10% dialysed FBS. Once adhered, cells were serum-starved overnight. Agonist stimulation was performed by the addition of 5 μL agonist to the cells for 5 min (37° C.). Media was removed and 50 μL of lysis buffer added. […] Plates were incubated for 2 h with gentle agitation in the dark and then read on a PHERAstar plate reader.
(§2) pEC50 and Emax figures were calculated from the resulting data for each receptor subtype.
Background: Bead proximity is the source of the signal in Alpha formats.

The target in assay [2] is T2, human muscarinic M4 receptor (Homo sapiens, UniProt P08173).
T2 construct: expressed in transfected cells
T2 sequence (P08173 1-479): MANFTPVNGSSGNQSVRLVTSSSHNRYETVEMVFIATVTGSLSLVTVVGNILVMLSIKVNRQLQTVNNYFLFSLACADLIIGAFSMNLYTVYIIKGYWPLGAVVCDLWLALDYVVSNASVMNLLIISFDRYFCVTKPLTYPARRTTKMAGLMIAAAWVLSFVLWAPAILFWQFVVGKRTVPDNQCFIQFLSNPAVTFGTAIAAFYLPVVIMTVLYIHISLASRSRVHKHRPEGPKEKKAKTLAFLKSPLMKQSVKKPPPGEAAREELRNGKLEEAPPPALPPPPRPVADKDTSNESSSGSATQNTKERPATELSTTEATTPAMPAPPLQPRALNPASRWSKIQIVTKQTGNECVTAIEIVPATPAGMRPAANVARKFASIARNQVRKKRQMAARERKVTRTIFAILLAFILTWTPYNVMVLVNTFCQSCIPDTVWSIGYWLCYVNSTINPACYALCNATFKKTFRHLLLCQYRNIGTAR
The assay is described as follows: Alphascreen Surefire phospho-ERK1/2 functional assay, M4. The class given is cell-based. Particulars: for EC50: CHO cells stably expressing human M4, read-out: pEC50 M4 (converted); for Emax: CHO, read-out: % Emax cf. ACh, M4, CHO cells stably expressing human M4, relative to ACh; for % Emax cf. ACh, M4: CHO cells stably expressing human M4, relative to ACh. As for the experimental part:
as §1, §2

Turning to `CCOC(=O)N1[C@@H]2CC[C@H]1CC(N1CCC3(CC1)OC(=O)NC3Cc1ccccn1)C2` (mixture of isomers) [Example 2-23, ethyl-3-(2-oxo-4-(pyridin-2-ylmethyl)-1-oxa-3,8-diazaspiro[4.5]decan-8-yl)-8-azabicyclo[3.2.1]octane-8-carboxylate], the values for the EC50 in assay [1] and in assay [2] were 501 nM and > 20000 nM, respectively. In addition, the Emax worked out at 86% in assay [1] and 12% in assay [2].

On to `COC(=O)N1C2CCC1CC(N1CCC3(CC1)CNC(=O)C3)C2` (single isomer, unassigned) [Example 2-1 Isomer 2], for which, in assay [1], the EC50 is 631 nM and the Emax worked out at 72%. In assay [2], the EC50 is 1580 nM and the Emax turned out to be 25%.

For the compound `O=C1CC2(CCN(C3CC4CCC(C3)N4C(=O)OCCF)CC2)CN1` (single isomer, unassigned) [Example 2-3 Isomer 1], the results for the EC50 in assay [1] and in assay [2] were 398 nM and 2000 nM, respectively. Besides, in assay [1] (listed as 2-3 Isomer 1), the “% Emax cf. ACh, M1” value worked out at 85%. Moreover, the “% Emax cf. ACh, M4” value in assay [2] (listed as 2-3 Isomer 1) was determined as 47%.

On to `CCCC(=O)N1C2CCC1CC(N1CCC3(CC1)CNC(=O)C3)C2` (single isomer, unassigned) [Example 2-6 Isomer 2], for which, in assay [1], the EC50 was 501 nM and the Emax worked out at 35%. In addition, in assay [2], the EC50 is 15800 nM and the Emax stood at 32%.

`CCOC(=O)N1C2CCC1C(F)C(N1CCC3(CC1)CNC(=O)C3)C2` (single isomer, unassigned) [Example 2-11 Isomer 1]: in assay [1], the EC50 was 631 nM and the Emax stood at 95%. In assay [2], the EC50 is 1000 nM and the Emax amounted to 53%.

As to `CCOC(=O)N1C2CCC1CC(N1CCC3(CC1)CNC(=O)O3)C2` (single isomer, unassigned) [Example 2-14 Isomer 1], the results for the EC50 in assay [1] and in assay [2] were 200 nM and 501 nM, respectively. The Emax in assay [1] came to 108%; in assay [2] it was 55%.

As to `CCOC(=O)N1C2CCC1CC(N1CCC3(CC1)OC(=O)NC3C)C2` (single isomer, unassigned) [Example 2-15 Isomer 1], in assay [1], the EC50 is 100 nM and the Emax turned out to be 101%. For the same compound, in assay [2], the EC50 was > 20000 nM and the Emax is 10%.

Take `CCOC(=O)N1C2CCC1CC(N1CCC3(CC1)OC(=O)NC3CC)C2` (single isomer, unassigned) [Example 2-16 Isomer 2]: the EC50 in assay [1] is 631 nM; in assay [2], 200 nM. In assay [1] (listed as 2-16 Isomer 2), the “% Emax cf. ACh, M1” value was determined as 68%. In assay [2] (listed as 2-16 Isomer 2), the “% Emax cf. ACh, M4” value stood at 51%.

With `CCOC(=O)N1C2CCC1CC(N1CCC3(CC1)OC(=O)NC3(C)C)C2` (single isomer, unassigned) [Example 2-18 Isomer 1], in assay [1], the EC50 is 251 nM and the maximal response (Emax) was 55%. For the same compound, in assay [2], the EC50 was > 20000 nM and the Emax turned out to be 11%.

In the case of `CCOC(=O)N1C2CCC1C(F)C(N1CCC3(CC1)CNC(=O)O3)C2` (single isomer, unassigned) [Example 2-19 Isomer 2], in assay [1], the EC50 was 1000 nM and the Emax was 94%. Further, in assay [2], the EC50 was 3980 nM and the Emax was 74%.

Consider `CCOC(=O)N1C2CCC1CC(N1CCC3(CC1)CC(=O)N(C(C)C)C3)C2` (single isomer, unassigned) [Example 2-26 Isomer 2], for which the EC50 in assay [1] and in assay [2] was 631 nM throughout. Also, the Emax amounted to 43% in assay [1] and 22% in assay [2].

Consider `CCOC(=O)N1C2CCC1CC(N1CCC3(CC1)CC(=O)N(CC(C)C)C3)C2` (single isomer, unassigned) [Example 2-27 Isomer 2], for which, in assay [1], the EC50 is 398 nM and the Emax worked out at 38%. In addition, in assay [2], the EC50 was > 20000 nM and the Emax was found to be 14%.

On to `CCOC(=O)N1C2CCC1CC(N1CCC3(CC1)CC(=O)N(CC1CC1)C3)C2` (single isomer, unassigned) [Example 2-28 Isomer 2], for which, in assay [1], the EC50 was 501 nM and the Emax stood at 57%. In assay [2], the EC50 was 316 nM and the Emax amounted to 27%.

With `[2H]C([2H])(C)OC(=O)N1C2CCC1CC(N1CCC3(CC1)CNC(=O)C3)C2` (single isomer, unassigned) [Example 2-30 Isomer 1, (1,1-^2H2)ethyl 3-(3-oxo-2,8-diazaspiro[4.5]dec-8-yl)-8-azabicyclo[3.2.1]octane-8-carboxylate], the EC50 in assay [1] is 126 nM; in assay [2] it was 200 nM. In addition, in assay [1] (listed as 2-30 Isomer 1), the “% Emax cf. ACh, M1” value came to 107%. In addition, the Emax in assay [2] was found to be 49%.

Turning to `[2H]C([2H])([2H])COC(=O)N1C2CCC1CC(N1CCC3(CC1)CNC(=O)C3)C2` (single isomer, unassigned) [Example 2-31 Isomer 1], the EC50 in assay [1] is 126 nM; in assay [2] it was 251 nM. For the same compound, in assay [1] (listed as 2-31 Isomer 1), the “% Emax cf. ACh, M1” value turned out to be 112%. For the same compound, in assay [2] (listed as 2-31 Isomer 1), the “% Emax cf. ACh, M4” value was 53%.

Consider `CC(C)OC(=O)N1C2CCC1CC(N1CCC3(CC1)CNC(=O)C3)C2` (single isomer, unassigned) [Example 2-33 Isomer 1], for which the EC50 in assay [1] was 31.6 nM; in assay [2] it was 200 nM. The “% Emax cf. ACh, M1” value in assay [1] (listed as 2-33 Isomer 1) is 37%. The maximum response (Emax) in assay [2] stood at 20%.

As for `CC(C)OC(=O)N1C2CCC1CC(N1CCC3(CC1)CNC(=O)C3)C2` (single isomer, unassigned) [Example 2-33 Isomer 2], the figures for the EC50 in assay [1] and in assay [2] were 398 nM and 316 nM, respectively. The “% Emax cf. ACh, M1” value in assay [1] (listed as 2-33 Isomer 2) is recorded as 62%. In addition, the “% Emax cf. ACh, M4” value in assay [2] is 25%.

Consider `CSC(=O)N1C2CCC1CC(N1CCC3(CC1)CNC(=O)C3)C2` (single isomer, unassigned) [Example 2-34 Isomer 1], for which, in assay [1], the EC50 is 501 nM and the Emax came to 50%. In assay [2], the EC50 was > 20000 nM and the Emax is 8%.

Take `CCSC(=O)N1C2CCC1CC(N1CCC3(CC1)CNC(=O)C3)C2` (single isomer, unassigned) [Example 2-35 Isomer 1]: the EC50 in assay [1] is 39.8 nM. In addition, the “% Emax cf. ACh, M1” value in assay [1] (listed as 2-35 Isomer 1) is given as 24%. In addition, in assay [2], the EC50 was > 20000 nM and the Emax amounted to 7%.

For `CCSC(=O)N1C2CCC1CC(N1CCC3(CC1)CNC(=O)C3)C2` (single isomer, unassigned) [Example 2-35 Isomer 2], in assay [1], the EC50 was 794 nM. In assay [1] (listed as 2-35 Isomer 2), the “% Emax cf. ACh, M1” value amounted to 50%. For the same compound, the “% Emax cf. ACh, M4” value in assay [2] was 10%.

As to `CCOC(=O)N1CC2CCC1CC2N1CCC2(CC1)CNC(=O)C2` (single isomer, unassigned) [Example 3-1 Isomer 4, ethyl 5-(3-oxo-2,8-diazaspiro[4.5]dec-8-yl)-2-azabicyclo[2.2.2]octane-2-carboxylate], the EC50 was 1260 nM in assay [1] and > 20000 nM in assay [2]. The “% Emax cf. ACh, M1” value in assay [1] (listed as 3-1 Isomer 4) was 62%. In assay [2] (listed as 3-1 Isomer 4), the “% Emax cf. ACh, M4” value worked out at 7%.

On to `CCOC(=O)N1CC2CCC1CC2N1CCC2(CC1)CNC(=O)O2` (single isomer, unassigned) [Example 3-2 Isomer 1, ethyl 5-(2-oxo-1-oxa-3,8-diazaspiro[4.5]dec-8-yl)-2-azabicyclo[2.2.2]octane-2-carboxylate], for which, in assay [1], the EC50 is 251 nM and the Emax came to 111%. Also, in assay [2], the EC50 is 1260 nM and the Emax is 29%.
